Results taken from patent US8524740B2, “Synthesis and anticancer activity of aryl and heteroaryl-quinolin derivatives” (Tairx, Inc., priority 2010, dated 2013).
pIC50: −log10 of the molar value. One block for each compound: values may come before it.

What was measured:
[1] = test system: HCT116; test: MTT assay, HCT-116 cells; type: cell-based; settings: Homo sapiens, Table 1, 48 h
Method: (§1) MTT (3-(4,5-Dimethylthiazol-2-yl)-2,5-diphenyltetrazolium bromide) assays.^21,22 HL-60, HCT-116, Hep 3B, H460, Detroit 551 and HT29/FuR cells were treated with tested compounds for the indicated periods. After treatment, cells were washed once with PBS and incubated with MTT (Sigma, St. Louis, Mo., USA) for 2 h. The formazan precipitate was dissolved in 150 μL of DMSO, and the absorbance was measured with an ELISA reader at 570 nm.
as §1, with “assays.” for “assays.^21,22”, “HCT-116, A549,” for “HCT-116,”, “KB, Kb-VIN” for “H460, Detroit 551”, “DU145” for “HT29/FuR”

[2] = test system: Hep3B; test: MTT assay, Hep 3B cells; type: cell-based; settings: Homo sapiens
Method: as §1
(§2) HL-60, Hep 3B, H460, MES-SA, MES-SAID x5 and Detroit 551 cells were treated with vehicle or test compounds for 48 h. The cell growth rate was determined by MTT (3-(4,5-dimethyl-thiazol-2-yl)-2,5-diphenyltetrazoliun bromide) reduction assay.
as §1, with “assays.” for “assays.^21,22”, “HCT-116, A549,” for “HCT-116,”, “KB, Kb-VIN” for “H460, Detroit 551”, “DU145” for “HT29/FuR”
as §1, with “assays.” for “assays.^21,22”, “HL-60,” for “HL-60, HCT-116,”, “H460, A498, Colo205 and” for “H460,”, “551” for “551 and HT29/FuR”

[3] = test system: Detroit 551; test: MTT assay, Detroit 551 normal human cells; type: cell-based; settings: for pIC50: Detroit 551; for toxicity toward Detroit 551 normal human cell (in words): Table 1 compounds
Method: as §1, §2
as §1, with “assays.” for “assays.^21,22”, “HL-60,” for “HL-60, HCT-116,”, “H460, A498, Colo205 and” for “H460,”, “551” for “551 and HT29/FuR”

[4] = test system: HL-60, HCT-116, Hep3B, H-460; test: Cytotoxicity screen (MTT) against human cancer cell lines, results in words; type: cell-based; settings: comparison within sub-series or with CHM-2133
Method: as §1, §2

[5] = test system: HT29/5FuR; test: MTT assay, HT29/5FuR cells; type: cell-based; settings: Homo sapiens, HT-29, Table 1, 48 h
Method: as §1

[6] = test system: HL-60; test: MTT assay, HL-60 cells; type: cell-based; settings: Homo sapiens
Method: as §1, §2
as §1, with “assays.” for “assays.^21,22”, “HCT-116, A549,” for “HCT-116,”, “KB, Kb-VIN” for “H460, Detroit 551”, “DU145” for “HT29/FuR”
as §1, with “assays.” for “assays.^21,22”, “HL-60,” for “HL-60, HCT-116,”, “H460, A498, Colo205 and” for “H460,”, “551” for “551 and HT29/FuR”

[7] = test system: H460; test: MTT assay, H460 cells; type: cell-based; settings: Homo sapiens, NCI-H460
Method: as §1, §2
as §1, with “assays.” for “assays.^21,22”, “HL-60,” for “HL-60, HCT-116,”, “H460, A498, Colo205 and” for “H460,”, “551” for “551 and HT29/FuR”

[8] = Table 1, 48 h, MTT, normal human cell
[9] = Homo sapiens, Table 2, B-1 series, 48 hrs
[10] = Homo sapiens, Table 3, B-2 series, 48 hrs
[11] = Homo sapiens, Table 4, B-3 series, 48 hrs

SMILES: O=C1CC(c2cccc(F)c2)=Nc2ccc(O)c(O)c21 [Compound 41, 2-(3-Fluorophenyl)-5,6-dihydroxyquinolin-4-one]
pIC50 [1]: 5.09
pIC50 ([2]; Table 1, 48 h, MTT): 5.16
pIC50 [3, 8]: < 4.00
cytotoxicity (in words) [4]: greater cytotoxicity
pIC50 [5]: 6.28
pIC50 ([6]; Table 1, 48 h, MTT): 6.52
pIC50 ([7]; Table 1, 48 h, MTT): 5.21

SMILES: COc1cc2c(cc1OCc1ccccc1)N=C(c1ccc(F)cc1)CC2=O [Compound 24, 7-Benzyloxy-2-(4-fluorophenyl)-6-methoxyquinolin-4-one]
melting point: 248 to 249 °C

SMILES: COc1ccc2c(c1O)C(=O)CC(c1ccc(F)cc1)=N2 [Compound 39, 2-(4-Fluorophenyl)-5-hydroxy-6-methoxyquinolin-4-one]
pIC50 [1]: 5.62
pIC50 ([2]; Table 1, 48 h, MTT): 4.96
pIC50 [3, 8]: < 4.60
cytotoxicity (in words) [4]: weaker
pIC50 [5]: 6.48
pIC50 ([6]; Table 1, 48 h, MTT): 5.74
pIC50 ([7]; Table 1, 48 h, MTT): 5.06

SMILES: O=C1CC(c2cccc(OCc3ccccc3)c2)=Nc2ccc(N3CCOCC3)cc21 [Compound 116, 2-(3-Benzyloxyphenyl)-6-morpholinoquinolin-4-one]
melting point: 283 to 285 °C

SMILES: O=C1CC(c2ccccc2OCc2ccccc2)=Nc2ccc(N3CCCC3)cc21 [Compound 114, 2-(2-Benzyloxyphenyl)-6-pyrrolidinoquinolin-4-one]
melting point: 293 to 295 °C

SMILES: COc1cc2c(cc1OCc1ccccc1)N=C(c1cccc(F)c1)CC2=O [Compound 23, 7-Benzyloxy-2-(3-fluorophenyl)-6-methoxyquinolin-4-one]
melting point: 154 to 155 °C

SMILES: COc1cc2c(cc1OCc1ccccc1)N=C(c1ccccc1F)CC2=O [Compound 22, 7-Benzyloxy-2-(2-fluorophenyl)-6-methoxyquinolin-4-one]
melting point: 132 to 134 °C

SMILES: COc1ccc2c(c1O)C(=O)CC(c1cccc(F)c1)=N2 [Compound 38, 2-(3-Fluorophenyl)-5-hydroxy-6-methoxyquinolin-4-one]
pIC50 [1]: 7.14
pIC50 ([2]; Table 1, 48 h, MTT): 7.11
pIC50 [3, 8]: < 4.30
toxicity toward Detroit 551 normal human cell (in words) [3]: lower toxicity
cytotoxicity (in words) [4]: greater cytotoxicity
pIC50 [5]: 6.59
pIC50 ([6]; Table 1, 48 h, MTT): 7.41
pIC50 ([7]; Table 1, 48 h, MTT): 7.06

SMILES: O=C1CC(c2ccccc2F)=Nc2ccc(O)c(O)c21 [Compound 40, 2-(2-Fluorophenyl)-5,6-dihydroxyquinolin-4-one]
pIC50 [1]: 6.22
pIC50 ([2]; Table 1, 48 h, MTT): 5.41
pIC50 [3, 8]: < 4.00
cytotoxicity (in words) [4]: greater cytotoxicity
pIC50 [5]: 5.79
pIC50 ([6]; Table 1, 48 h, MTT): 6.30
pIC50 ([7]; Table 1, 48 h, MTT): 5.39

SMILES: CN(C)c1ccc2c(c1)C(=O)CC(c1ccccc1OCc1ccccc1)=N2 [Compound 115, 2-(2-Benzyloxyphenyl)-6-dimethylaminoquinolin-4-one]
melting point: 210 to 212 °C

SMILES: COc1ccc2c(c1O)C(=O)CC(c1ccccc1F)=N2 [Compound 37, 2-(2-Fluorophenyl)-5-hydroxy-6-methoxyquinolin-4-one]
pIC50 [1]: 7.30
pIC50 ([2]; Table 1, 48 h, MTT): 7.30
pIC50 [3, 8]: 5.00
toxicity toward Detroit 551 normal human cell (in words) [3]: lower toxicity
cytotoxicity (in words) [4]: greater cytotoxicity
pIC50 [5]: 6.70
pIC50 ([6]; Table 1, 48 h, MTT): 7.17
pIC50 ([7]; Table 1, 48 h, MTT): 6.96

SMILES: COc1ccc2c(c1OC)C(=O)CC(c1ccccc1F)=N2 [Compound 16, 2-(2-Fluorophenyl)-5,6-dimethoxyquinolin-4-one]
pIC50 [1]: < 4.70
pIC50 ([2]; Table 1, 48 h, MTT): < 4.70
pIC50 [3, 8]: < 4.70
pIC50 [5]: 5.69
pIC50 ([6]; Table 1, 48 h, MTT): 5.43
pIC50 ([7]; Table 1, 48 h, MTT): < 4.70

SMILES: O=C1CC(c2ccc(F)cc2)=Nc2ccc(O)c(O)c21 [Compound 42, 2-(4-Fluorophenyl)-5,6-dihydroxyquinolin-4-one]
pIC50 [1]: < 4.00
pIC50 ([2]; Table 1, 48 h, MTT): 4.00
pIC50 [3, 8]: < 4.00
cytotoxicity (in words) [4]: weaker
pIC50 ([6]; Table 1, 48 h, MTT): 4.41
pIC50 ([7]; Table 1, 48 h, MTT): 4.00

More lines, main results first:

melting point: 330 to 332 °C
SMILES: O=C1CC(c2ccc(OCc3ccccc3)cc2)=Nc2ccc(N3CCCC3)cc21 [Compound 120, 2-(4-Benzyloxyphenyl)-6-pyrrolidinoquinolin-4-one]

melting point: 304 to 306 °C
SMILES: COc1cc(C2=Nc3ccc(N4CCCC4)cc3C(=O)C2)ccc1OCc1ccccc1 [Compound 123, 2-(4-(Benzyloxy)-3-methoxyphenyl)-6-pyrrolidinoquinolin-4-one]

melting point: 307 to 308 °C
SMILES: CN(C)c1ccc2c(c1)C(=O)CC(c1cccc(OCc3ccccc3)c1)=N2 [Compound 118, 2-(3-Benzyloxyphenyl)-6-dimethylaminoquinolin-4-one]

pIC50 ([2]; Table 2, B-1 series, 48 hrs): 4.30
melting point: 297 to 299 °C
pIC50 ([6]; Table 2, B-1 series, 48 hrs): 5.41
pIC50 ([7]; Table 2, B-1 series, 48 hrs): 4.30
SMILES: COc1cc(C2=Nc3ccc(N4CCOCC4)cc3C(=O)C2)ccc1O [Compound 143, 2-(4-Hydroxy-3-methoxyphenyl)-6-morpholinoquinolin-4-one]
pIC50 [3, 9]: 4.30

pIC50 ([2]; Table 3, B-2 series, 48 hrs): < 6.00
melting point: 312 to 313 °C
pIC50 ([6]; Table 3, B-2 series, 48 hrs): < 6.00
pIC50 ([7]; Table 3, B-2 series, 48 hrs): < 6.00
SMILES: COc1ccc(C2=Nc3ccc(N4CCCC4)cc3C(=O)C2)cc1 [Compound 133, 2-(4-Methoxyphenyl)-6-pyrrolidinoquinolin-4-one]
pIC50 [3, 10]: < 6.00

pIC50 ([2]; Table 2, B-1 series, 48 hrs): 4.23
pIC50 ([6]; Table 2, B-1 series, 48 hrs): 4.25
pIC50 ([7]; Table 2, B-1 series, 48 hrs): < 4.00
SMILES: COc1ccc(O)cc1C1=Nc2ccc(N3CCCC3)cc2C(=O)C1 [Compound 143b, 2-(5-hydroxy-2-methoxyphenyl)-6-pyrrolidinoquinolin-4-one]
pIC50 [3, 9]: < 4.00

melting point: 320 to 322 °C
SMILES: O=C1CC(c2cccc(OCc3ccccc3)c2)=Nc2ccc(N3CCCC3)cc21 [Compound 117, 2-(3-Benzyloxyphenyl)-6-pyrrolidinoquinolin-4-one]

pIC50 ([2]; Table 2, B-1 series, 48 hrs): < 5.00
melting point: 340 to 342 °C
pIC50 ([6]; Table 2, B-1 series, 48 hrs): 5.79
pIC50 ([7]; Table 2, B-1 series, 48 hrs): < 5.00
SMILES: O=C1CC(c2ccc(O)cc2)=Nc2ccc(N3CCOCC3)cc21 [Compound 140, 2-(4-Hydroxyphenyl)-6-morpholinoquinolin-4-one]

pIC50 ([2]; Table 2, B-1 series, 48 hrs): < 4.00
pIC50 ([6]; Table 2, B-1 series, 48 hrs): 4.03
pIC50 ([7]; Table 2, B-1 series, 48 hrs): 4.07
SMILES: COc1ccc(O)cc1C1=Nc2ccc(N3CCOCC3)cc2C(=O)C1 [Compound 143a, 2-(5-hydroxy-2-methoxyphenyl)-6-morpholinoquinolin-4-one]
pIC50 [3, 9]: < 4.00

pIC50 ([2]; Table 3, B-2 series, 48 hrs): 6.42
melting point: 310 to 312 °C
pIC50 ([6]; Table 3, B-2 series, 48 hrs): 7.42
pIC50 ([7]; Table 3, B-2 series, 48 hrs): 6.25
SMILES: COc1cc(C2=Nc3ccc(N4CCCC4)cc3C(=O)C2)ccc1O [Compound 144, 2-(4-Hydroxy-3-methoxyphenyl)-6-pyrrolidinoquinolin-4-one]
pIC50 [3, 10]: < 5.60

melting point: 320 to 323 °C
SMILES: O=C1CC(c2ccc(OCc3ccccc3)cc2)=Nc2ccc(N3CCOCC3)cc21 [Compound 119, 2-(4-Benzyloxyphenyl)-6-morpholinoquinolin-4-one]

melting point: 235 to 238 °C
SMILES: COc1cc(OCc2ccccc2)cc(C2=Nc3cc4c(cc3C(=O)C2)OCO4)c1 [Compound 165, 2-(3-Benzyloxy-5-methoxyphenyl)-6,7-methylenedioxyquinolin-4-one]

pIC50 ([2]; Table 2, B-1 series, 48 hrs): < 5.60
melting point: 302 to 304 °C
pIC50 ([6]; Table 2, B-1 series, 48 hrs): < 5.60
pIC50 ([7]; Table 2, B-1 series, 48 hrs): < 5.60
SMILES: COc1ccc(C2=Nc3ccc(N4CCOCC4)cc3C(=O)C2)cc1 [Compound 132, 2-(4-Methoxyphenyl)-6-morpholinoquinolin-4-one]
pIC50 [3, 9]: < 5.60

pIC50 ([2]; Table 4, B-3 series, 48 hrs): 5.05
melting point: 321 to 323 °C
pIC50 ([6]; Table 4, B-3 series, 48 hrs): 6.19
pIC50 ([7]; Table 4, B-3 series, 48 hrs): 6.25
SMILES: CN(C)c1ccc2c(c1)C(=O)CC(c1ccc(O)cc1)=N2 [Compound 142, 2-(4-Hydroxyphenyl)-6-dimethylaminoquinolin-4-one]
pIC50 [3, 11]: 4.12

pIC50 ([2]; Table 3, B-2 series, 48 hrs): 5.96
melting point: 304 to 306 °C
pIC50 ([6]; Table 3, B-2 series, 48 hrs): 7.40
pIC50 ([7]; Table 3, B-2 series, 48 hrs): 5.81
SMILES: O=C1CC(c2ccc(O)cc2)=Nc2ccc(N3CCCC3)cc21 [Compound 141, 2-(4-Hydroxyphenyl)-6-pyrrolidinoquinolin-4-one]
pIC50 [3, 10]: < 4.60

pIC50 ([2]; Table 4, B-3 series, 48 hrs): 5.15
melting point: 296 to 298 °C
pIC50 ([6]; Table 4, B-3 series, 48 hrs): 5.52
pIC50 ([7]; Table 4, B-3 series, 48 hrs): 5.27
SMILES: CN(C)c1ccc2c(c1)C(=O)CC(c1ccccc1O)=N2 [Compound 136, 2-(2-Hydroxyphenyl)-6-dimethylaminoquinolin-4-one]
pIC50 [3, 11]: 4.00

melting point: 283 to 285 °C
SMILES: CN(C)c1ccc2c(c1)C(=O)CC(c1ccc(OCc3ccccc3)cc1)=N2 [Compound 121, 2-(4-Benzyloxyphenyl)-6-dimethylaminoquinolin-4-one]
